We go through 18 compounds from ChEMBL document CHEMBL1201862, “PubChem BioAssay data set” (2004).

Calls of active or inactive are those of the source.

For orientation: AC50 means the midpoint of the concentration-response curve, whichever way the signal moves. As a reminder, the GI50 is the concentration giving 50% growth inhibition.

The nature of assay [1]: cells. It is filed as functional, cell-based.
Assay [2] can be described thus: cells. Type of assay: functional, cell-based. The source holds these as a separate data set.
The nature of assay [3]: HEK-293T cell viability reduction – luminescence, B-cell screen hits, cytotoxicity control for BCR NF-kB inhibitor project, dose response (AID 489021).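 Note: HEK-293T cells carrying an NF-kB luciferase reporter; cells exposed to compound for about 14 hours before viability readout.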 Type of assay: functional, cell-based.
A further assay deals with Protein Wnt-3a (Mus musculus, UniProt P27467). Description: antagonism of Wnt3a pathway luciferase reporter – Wnt-LIGHT cells, luminescence, selectivity assay for Gli-SUFU antagonist project, dose response (AID 651570).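 Note: Wnt-LIGHT reporter cells stimulated with conditioned medium from Wnt3a-producing cells.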 It is filed as functional. To be noted: read-out: IC50_Mean. In general terms: Reporter assays use an easily measured gene product as a stand-in for the process of interest.

Assay [4] is described as follows: Trypanosoma cruzi growth suppression in host cells – NIH3T3 host cells, beta-gal luminescence, confirmation (AID 2044).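 Note: intracellular parasites grown in NIH/3T3 mouse fibroblasts as host cells; luminescent beta-galactosidase reporter signal from transgenic T. cruzi replicating inside host cells; inhibitors lower the luminescence signal.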 It is filed as functional, cell-based.
Assay [5] relates to BJ. Description: cells. It is filed as functional, cell-based. To be noted: Homo sapiens.
The nature of assay [6]: DRD fibroblast viability loss – cell-based, non-viral oncogenic, luminescence, dose response (AID 1934). To be noted: Homo sapiens. Type of assay: functional.
Another assay has as its system INS1. As to the kind of experiment: INS-1E survival protection against cytokine death – cell-based, luminescence, retest, dose response (AID 449756).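 Note: cell death triggered by IL-1 beta plus TNF-alpha plus IFN-gamma mixture; protective hits raise ATP signal compared with cytokine alone wells.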 To be noted: Rattus norvegicus. Type of assay: functional.
Assay [7] deals with BJ. As to the kind of experiment: BJ-TERT fibroblast viability loss – cell-based, RAS-independent, luminescence, dose response (AID 1933). Type of assay: functional. To be noted: Homo sapiens.
Assay [8] is described as follows: NIH3T3 cell viability loss – ATP luminescence, mouse fibroblasts, counter-screen, dose response (AID 2010).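 Note: cells exposed to compound for about 90 hours before reading.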 It is filed as functional, cell-based. Background: Counterscreens check selectivity or assay interference.
Assay [9] concerns BJ. Description: BJ-TERT-LT-ST fibroblast viability loss – cell-based, RAS-independent, luminescence, dose response (AID 1935).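 Note: BJ fibroblasts immortalized with TERT plus LT and ST oncogenes.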 Type of assay: functional. To be noted: Homo sapiens.
For assay [10], the target named is T1, Corticotropin-releasing factor receptor 2/Corticotropin-releasing factor-binding protein (Homo sapiens, UniProt P24387+Q13324).
T1 sequence (Q13324 whole entry): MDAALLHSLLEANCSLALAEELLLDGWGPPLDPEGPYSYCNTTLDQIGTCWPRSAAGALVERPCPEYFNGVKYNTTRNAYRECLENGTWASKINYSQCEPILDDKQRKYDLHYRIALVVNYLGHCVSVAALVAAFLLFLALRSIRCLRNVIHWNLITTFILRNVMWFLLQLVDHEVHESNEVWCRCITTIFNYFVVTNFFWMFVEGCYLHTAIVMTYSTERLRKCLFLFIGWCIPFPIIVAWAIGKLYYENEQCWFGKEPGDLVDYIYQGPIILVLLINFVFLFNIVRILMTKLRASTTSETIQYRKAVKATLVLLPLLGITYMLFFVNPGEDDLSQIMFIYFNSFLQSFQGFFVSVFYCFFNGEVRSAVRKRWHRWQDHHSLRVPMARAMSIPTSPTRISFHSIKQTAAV
T1 sequence (P24387 whole entry): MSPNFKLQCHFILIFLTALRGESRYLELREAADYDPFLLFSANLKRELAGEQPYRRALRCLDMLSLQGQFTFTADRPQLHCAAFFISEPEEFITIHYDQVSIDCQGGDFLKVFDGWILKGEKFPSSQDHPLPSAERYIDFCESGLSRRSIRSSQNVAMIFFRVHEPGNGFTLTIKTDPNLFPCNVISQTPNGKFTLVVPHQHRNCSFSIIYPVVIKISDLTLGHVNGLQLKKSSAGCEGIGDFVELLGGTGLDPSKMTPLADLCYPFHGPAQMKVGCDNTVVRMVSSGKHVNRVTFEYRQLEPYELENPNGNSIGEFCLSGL
As to the kind of experiment: Dose Response confirmation of uHTS hits for small molecule antagonists of the CRF-binding protein and CRF-R2 receptor complex. Type of assay: functional. To be noted: read-out: IC50_Mean.

Assay [11] has as its target T2, Histone-lysine N-methyltransferase NSD2 (Homo sapiens, UniProt O96028).
T2 sequence (O96028 whole entry): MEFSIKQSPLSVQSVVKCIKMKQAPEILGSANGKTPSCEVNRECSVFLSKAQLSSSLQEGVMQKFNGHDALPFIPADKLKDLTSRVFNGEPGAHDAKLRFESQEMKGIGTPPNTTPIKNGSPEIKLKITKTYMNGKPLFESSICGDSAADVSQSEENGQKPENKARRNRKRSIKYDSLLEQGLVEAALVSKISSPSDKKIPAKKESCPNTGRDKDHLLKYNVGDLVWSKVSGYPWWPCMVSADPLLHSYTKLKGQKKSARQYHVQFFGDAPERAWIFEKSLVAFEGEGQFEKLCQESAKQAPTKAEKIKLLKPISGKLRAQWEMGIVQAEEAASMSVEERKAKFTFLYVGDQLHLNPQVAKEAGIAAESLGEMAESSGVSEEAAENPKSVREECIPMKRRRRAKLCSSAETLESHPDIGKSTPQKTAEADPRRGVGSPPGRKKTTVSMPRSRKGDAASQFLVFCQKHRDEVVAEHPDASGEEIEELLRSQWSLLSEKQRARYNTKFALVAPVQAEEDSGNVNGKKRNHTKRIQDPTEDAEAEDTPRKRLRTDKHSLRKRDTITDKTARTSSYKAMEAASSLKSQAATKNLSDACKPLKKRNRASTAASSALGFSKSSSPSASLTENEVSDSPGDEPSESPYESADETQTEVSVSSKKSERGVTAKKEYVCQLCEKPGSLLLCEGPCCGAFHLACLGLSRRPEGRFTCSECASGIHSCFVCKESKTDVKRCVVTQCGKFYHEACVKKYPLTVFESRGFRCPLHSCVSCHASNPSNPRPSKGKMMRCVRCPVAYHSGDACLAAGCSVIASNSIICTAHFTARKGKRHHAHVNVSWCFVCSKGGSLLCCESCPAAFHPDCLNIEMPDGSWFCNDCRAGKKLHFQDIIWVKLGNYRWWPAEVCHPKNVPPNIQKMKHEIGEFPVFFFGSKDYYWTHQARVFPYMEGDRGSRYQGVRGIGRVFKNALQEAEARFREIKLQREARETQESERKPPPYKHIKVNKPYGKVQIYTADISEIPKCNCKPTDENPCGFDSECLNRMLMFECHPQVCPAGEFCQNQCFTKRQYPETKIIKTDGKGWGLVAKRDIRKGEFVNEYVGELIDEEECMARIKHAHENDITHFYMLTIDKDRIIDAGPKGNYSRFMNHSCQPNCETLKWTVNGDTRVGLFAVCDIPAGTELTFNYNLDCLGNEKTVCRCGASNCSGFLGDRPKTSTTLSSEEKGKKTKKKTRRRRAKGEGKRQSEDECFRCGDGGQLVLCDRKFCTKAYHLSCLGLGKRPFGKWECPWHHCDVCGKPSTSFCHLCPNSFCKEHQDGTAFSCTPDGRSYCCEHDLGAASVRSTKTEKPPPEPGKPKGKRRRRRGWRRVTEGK
Type of assay: biochemical.

Assay [12] deals with T1, Corticotropin-releasing factor receptor 2/Corticotropin-releasing factor-binding protein. As to the kind of experiment: activators of CRF receptor 2 with binding protein – uHTS hits, confirmation (AID 602473). It is filed as functional. To be noted: read-out: EC50_Mean.
In assay [13] the target is T3, Ubiquitin-conjugating enzyme E2 N (Homo sapiens, UniProt P61088).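 Note: Dose-response confirmation in a TR-FRET assay detecting UBC13-driven polyubiquitin chain formation, inhibition measured.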
T3 sequence (P61088 whole entry): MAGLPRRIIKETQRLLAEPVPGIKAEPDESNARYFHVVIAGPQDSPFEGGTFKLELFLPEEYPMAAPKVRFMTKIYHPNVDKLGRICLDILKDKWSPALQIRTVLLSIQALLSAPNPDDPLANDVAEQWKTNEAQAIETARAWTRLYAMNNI
It is filed as functional.

A short description of assay [14]: reduction of Shn3 3'UTR-driven luciferase in osteoblasts – cell-based, Clone20 osteoblasts, firefly luciferase, cherry-picked, dose response (AID 624132).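 Note: firefly luciferase luminescence from reporter carrying the Shn3 3'UTR in osteoblasts.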 It is filed as functional.
Assay [15] is described as follows: loss of viability in HepG2 cells – cell-based, CellTiter-Glo, cherry-picked, cytotoxicity control for Shn3 inhibitor project, dose response (AID 624134). Type of assay: functional.
Assay [16] is described as follows: non-specific 3'UTR reporter inhibition in Clone20-Shn3RL – cell-based, Renilla luciferase, cherry-picked, counter-screen for Shn3 inhibitor project, dose response (AID 624133). It is filed as functional.
In the next assay the test system is P388/ADR. As to the kind of experiment: cells. To be noted: Mus musculus. Type of assay: functional.
For the next assay, the system named is SN12K1. Description: cells. To be noted: Homo sapiens. Type of assay: functional.
Another assay concerns P388. As to the kind of experiment: cells. It is filed as functional. To be noted: Mus musculus.

Chain of Protein Wnt-3a (P27467 whole entry): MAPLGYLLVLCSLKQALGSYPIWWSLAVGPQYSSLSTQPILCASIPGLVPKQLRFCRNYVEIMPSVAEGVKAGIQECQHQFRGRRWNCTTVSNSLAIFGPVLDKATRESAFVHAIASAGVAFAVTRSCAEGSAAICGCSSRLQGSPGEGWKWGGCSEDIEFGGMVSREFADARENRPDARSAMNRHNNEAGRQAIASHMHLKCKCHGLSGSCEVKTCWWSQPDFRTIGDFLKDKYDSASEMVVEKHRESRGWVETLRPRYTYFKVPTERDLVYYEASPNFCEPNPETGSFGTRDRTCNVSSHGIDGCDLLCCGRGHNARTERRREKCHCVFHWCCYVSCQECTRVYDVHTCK

As for `CSc1nc(-c2ccc(Cl)cc2)nn1S(=O)(=O)c1ccccc1`, the EC50 in “cells [1]” was > 29.9 µM (inactive). Further, the IC50 in the assay “cells [2]” was > 29.9 µM (inactive).

As for `Cc1nn(-c2ccc(N3CCCCC3)nn2)c(C)c1CCC(=O)Nc1ccccc1F`, the IC50 in assay [3] was > 80 µM (inactive).

For `O=C(Nc1cccc(C(F)(F)F)c1)C1CCN(S(=O)(=O)c2ccc(N3CCCC3=O)cc2)CC1`, on Protein Wnt-3a, the IC50 is 6.98 µM (active).

On to `COc1ccc(-c2noc(N3CCC(C(=O)Nc4ccc(F)cc4F)CC3)n2)cc1`, for which the IC50 in assay [3] was > 80 µM (inactive).

`N=c1c2c(n(Cc3ccc(Cl)c(Cl)c3)c3c1CCC3)CCCC2`: the EC50 is 0.152 µM (active) in [4]; 14.1 µM (inconclusive) with BJ [5]; 28.9 µM (inconclusive) in [6]; 11.9 µM (active) with BJ [7]; > 60 µM (not active) in assay [8]; > 150 µM (not active) in the assay with BJ [9]. In addition, the concentration at half-maximal activity (AC50) in the assay with INS1 is 2.78 µM (active). Also, the IC50 in assay [3] is > 80 µM (inactive).

Consider `N#Cc1c(Cl)nc2c(c1C#N)CCCC2`, for which the IC50 in assay [10] is > 47.1 µM (inactive). Further, the AC50 in assay [11] is 11.8 µM (active). Further, in assay [12], the EC50 is > 53 µM (inactive).

Regarding `O=C(O)C1C2C=CC(C2)C1C(=O)NCCc1cccc(Cl)c1` (stereo not drawn), the values for the EC50 (in the assay “cells [1]”; in assay [12]) were > 29.9 µM (inactive) and > 53 µM (inactive), respectively. Also, the IC50 in assay [10] was > 47.1 µM (inactive); in “cells [2]”, > 29.9 µM (inactive).

For `Cc1ccc(-c2cc(C(F)(F)F)n3nc(C(=O)N4CCN5CCCC5C4)cc3n2)cc1` (stereo not drawn), the AC50 in assay [11] is 16 µM (active).

As to `Cc1ccsc1CNc1ncnc2ccc(-c3c(C)noc3C)cc12`, the values for the IC50 (at Protein Wnt-3a; in assay [13]) were 14.8 µM (active) and > 20 µM (inactive), respectively.

As to `Cc1ccccc1C(=O)NCC(=O)NNC(=S)NC(=O)c1ccccc1C`, the IC50 in assay [13] was > 20 µM (inactive).

Regarding `CN(CCOc1ccc(Cl)cc1)C(=O)c1cccc(S(=O)(=O)N2CCN(c3ccc(F)cc3)CC2)c1`, the IC50 at Protein Wnt-3a is 8.36 µM (active). For the same compound, the concentration at half-maximal activity (AC50) is 1.77 µM (active) in assay [14], 2.46 µM (active) in assay [15] and 6.21 µM (active) in assay [16].

Consider `CCN(CC(=O)Nc1c(F)cccc1F)C(=O)C1(c2ccccc2)CC1`, for which, in assay [3], the IC50 was > 80 µM (inactive).

For `Cc1ncc(S(=O)(=O)c2ccc(Cl)cc2)c(N)n1`, the IC50 in [13] is > 20 µM (inactive).

For `CNC(=O)OCc1c(CO)nc(SC)n1C`, the GI50 with P388/ADR, with SN12K1 and with P388 was > 100 µM (inactive) in each case.

On to `O=C(O)c1ccccc1/N=C/c1ccc(N(CCCl)CCCl)cc1`, for which the GI50 is 24.8 µM (inactive) in the assay on P388/ADR, > 100 µM (inactive) in the assay on SN12K1 and 19.2 µM (inactive) in the assay on P388.

Turning to `NN`, the GI50 in the assay with P388/ADR was 68.5 µM (inactive); with SN12K1 it was 96.8 µM (inactive); in the assay on P388, 105 µM (inactive).

As to `O=C(CCCCCN1C(=O)C2C3C=CC(C3)C2C1=O)Nc1ccc2ncccc2c1` (stereo not drawn), in assay [11], the AC50 is 8.81 µM (active).

Turning to `CC(C)=CC1C(C(=O)O)C1(C)C` (stereo not drawn) [CHRYSANTHEMIC ACID], the GI50 is 488 µM (inactive) in the assay with P388/ADR, > 750 µM (inactive) with SN12K1 and > 750 µM (inactive) in the assay on P388.
